Assay results: patent US20230295200A1 (REGENTS OF THE UNIVERSITY OF MICHIGAN, priority 2022, published 2023)

Target: T1, STAT6 protein (Homo sapiens, UniProt P42226)
T1 sequence (P42226 1-847): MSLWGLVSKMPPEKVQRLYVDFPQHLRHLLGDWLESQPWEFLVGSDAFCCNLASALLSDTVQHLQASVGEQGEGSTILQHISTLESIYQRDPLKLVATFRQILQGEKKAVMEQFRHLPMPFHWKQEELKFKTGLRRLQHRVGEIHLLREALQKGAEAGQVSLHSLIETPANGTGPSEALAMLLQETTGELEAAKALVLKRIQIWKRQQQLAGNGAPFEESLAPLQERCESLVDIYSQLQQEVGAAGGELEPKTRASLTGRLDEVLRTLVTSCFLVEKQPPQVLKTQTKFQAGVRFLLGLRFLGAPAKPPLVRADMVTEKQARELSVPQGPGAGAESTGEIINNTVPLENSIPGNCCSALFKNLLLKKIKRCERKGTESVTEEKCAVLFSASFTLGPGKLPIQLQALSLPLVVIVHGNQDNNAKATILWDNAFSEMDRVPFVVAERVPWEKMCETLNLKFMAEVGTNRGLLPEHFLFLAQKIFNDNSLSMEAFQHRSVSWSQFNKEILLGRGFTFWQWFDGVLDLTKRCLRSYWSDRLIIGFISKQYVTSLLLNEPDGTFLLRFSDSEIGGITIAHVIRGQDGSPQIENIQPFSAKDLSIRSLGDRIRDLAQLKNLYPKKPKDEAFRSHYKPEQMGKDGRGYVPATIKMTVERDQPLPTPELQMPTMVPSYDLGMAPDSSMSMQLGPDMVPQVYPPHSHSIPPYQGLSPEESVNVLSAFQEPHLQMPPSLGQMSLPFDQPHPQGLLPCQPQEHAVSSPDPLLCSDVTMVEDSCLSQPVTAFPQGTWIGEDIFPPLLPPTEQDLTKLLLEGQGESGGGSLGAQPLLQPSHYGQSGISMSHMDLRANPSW
Experiment: Fluorescence polarization (FP) binding assay, STAT6
Settings: FP competition, 5 nM fluorescein-labeled tracer, 200 nM protein, PBS pH7.4; read-out: Binding STAT6
How it was run: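 5 nM fluorescein tracer + 200 nM STAT protein; PBS pH 7.4, 0.01% BGG, 0.01% Tween-20, 2 mM DTT; shake 15 min, 1 h RT equilibrium; FP read; nonlinear fit for inhibition constants.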

Row | Ki | SMILES
1 | > 10000 nM | CC(=O)N1CC[C@H]2CC[C@@H](C(=O)N3CCCCC3)N2C(=O)[C@@H](NC(=O)c2cc3cc(C(F)(F)P(=O)(O)O)ccc3s2)C1 [Compound 381, ((2-(((5S,8S,10aR)-3-acetyl-6-oxo-8-(piperidine-1-carbonyl)decahydropyrrolo[1,2-a][1,5]diazocin-5-yl)carbamoyl)benzo[b]thiophen-5-yl)difluoromethyl)phosphonic acid]
2 | > 10000 nM | CC(=O)N1CC[C@H]2CC[C@@H](C(=O)N3CCc4ccc(C(F)(F)F)cc4C3)N2C(=O)[C@@H](NC(=O)c2cc3cc(C(F)(F)P(=O)(O)O)ccc3[nH]2)C1 [Compound 358, ((2-(((5S,8S,10aR)-3-acetyl-6-oxo-8-(7-(trifluoromethyl)-1,2,3,4-tetrahydroisoquinoline-2-carbonyl)decahydropyrrolo[1,2-a][1,5]diazocin-5-yl)carbamoyl)-1H-indol-5-yl)difluoromethyl)phosphonic acid]
3 | 100 to 1000 nM | O=C(N[C@H](C(=O)N1CCC[C@H]1C(=O)N1CCO[C@H](c2ccccc2)C1)C1CCCCC1)c1cc2cc(C(F)(F)P(=O)(O)O)ccc2s1 [Compound 279, ((2-(((S)-1-cyclohexyl-2-oxo-2-((S)-2-((R)-2-phenylmorpholine-4-carbonyl)pyrrolidin-1-yl)ethyl)carbamoyl)benzo[b]thiophen-5-yl)difluoromethyl)phosphonic acid]
4 | > 10000 nM | CC(=O)N1CC[C@H]2CC[C@@H](C(=O)N(C)c3ccc(Br)cc3)N2C(=O)[C@@H](NC(=O)c2cc3cc(C(F)(F)P(=O)(O)O)ccc3s2)C1 [Compound 394, ((2-(((5S,8S,10aR)-3-acetyl-8-((4-bromophenyl)(methyl)carbamoyl)-6-oxodecahydropyrrolo[1,2-a][1,5]diazocin-5-yl)carbamoyl)benzo[b]thiophen-5-yl)difluoromethyl)phosphonic acid]
5 | > 10000 nM | CC(=O)N1CC[C@H]2CC[C@@H](C(=O)N3CCC(C(N)=O)(C(F)(F)F)C3)N2C(=O)[C@@H](NC(=O)c2cc3cc(C(F)(F)P(=O)(O)O)ccc3s2)C1 (stereo partly drawn) [Compound 392, ((2-(((5S,8S,10aR)-3-acetyl-8-(3-carbamoyl-3-(trifluoromethyl)pyrrolidine-1-carbonyl)-6-oxodecahydropyrrolo[1,2-a][1,5]diazocin-5-yl)carbamoyl)benzo[b]thiophen-5-yl)difluoromethyl)phosphonic acid]
6 | 100 to 1000 nM | O=C(N[C@@H](CC1CCNCC1)C(=O)N1CCC[C@H]1C(=O)N1CCO[C@H](c2ccccc2)C1)c1cc2cc(C(F)(F)P(=O)(O)O)ccc2s1 [Compound 290, (difluoro(2-(((S)-1-oxo-1-((S)-2-((R)-2-phenylmorpholine-4-carbonyl)pyrrolidin-1-yl)-3-(piperidin-4-yl)propan-2-yl)carbamoyl)benzo[b]thiophen-5-yl)methyl)phosphonic acid]
7 | > 10000 nM | CN1CCC(C(=O)N2CC[C@H]3CC[C@@H](C(=O)N4CCc5ccccc5C4)N3C(=O)[C@@H](NC(=O)c3cc4cc(C(F)(F)P(=O)(O)O)ccc4[nH]3)C2)CC1 [Compound 365, (difluoro(2-(((5S,8S,10aR)-3-(1-methylpiperidine-4-carbonyl)-6-oxo-8-(1,2,3,4-tetrahydroisoquinoline-2-carbonyl)decahydropyrrolo[1,2-a][1,5]diazocin-5-yl)carbamoyl)-1H-indol-5-yl)methyl)phosphonic acid]
8 | > 10000 nM | CC(=O)N1CC[C@H]2CC[C@@H](C(=O)N3CCC4(CCCCCC4)C3)N2C(=O)[C@@H](NC(=O)c2cc3cc(C(F)(F)P(=O)(O)O)ccc3s2)C1 [Compound 385, ((2-(((5S,8S,10aR)-3-acetyl-6-oxo-8-(2-azaspiro[4.6]undecane-2-carbonyl)decahydropyrrolo[1,2-a][1,5]diazocin-5-yl)carbamoyl)benzo[b]thiophen-5-yl)difluoromethyl)phosphonic acid]
9 | 100 to 1000 nM | CC(=O)N1CC[C@H]2CC[C@@H](C(=O)N3Cc4ccccc4C3)N2C(=O)[C@@H](NC(=O)c2cc3cc(C(F)(F)P(=O)(O)O)ccc3[nH]2)C1 [Compound 359, ((2-(((5S,8S,10aR)-3-acetyl-8-(isoindoline-2-carbonyl)-6-oxodecahydropyrrolo[1,2-a][1,5]diazocin-5-yl)carbamoyl)-1H-indol-5-yl)difluoromethyl)phosphonic acid]
10 | > 10000 nM | CC(=O)N1CC[C@H]2CC[C@@H](C(=O)N3CCC4(CCCC4)C3)N2C(=O)[C@@H](NC(=O)c2cc3cc(C(F)(F)P(=O)(O)O)ccc3s2)C1 [Compound 382, ((2-(((5S,8S,10aR)-3-acetyl-6-oxo-8-(2-azaspiro[4.4]nonane-2-carbonyl)decahydropyrrolo[1,2-a][1,5]diazocin-5-yl)carbamoyl)benzo[b]thiophen-5-yl)difluoromethyl)phosphonic acid]
11 | > 10000 nM | CC(=O)N1CC[C@H]2CC[C@@H](C(=O)N(C)c3ccc(F)cc3)N2C(=O)[C@@H](NC(=O)c2cc3cc(C(F)(F)P(=O)(O)O)ccc3[nH]2)C1 [Compound 376, ((2-(((5S,8S,10aR)-3-acetyl-8-((4-fluorophenyl)(methyl)carbamoyl)-6-oxodecahydropyrrolo[1,2-a][1,5]diazocin-5-yl)carbamoyl)-1H-indol-5-yl)difluoromethyl)phosphonic acid]

More lines, now with the values behind:

Row | SMILES | Ki
12 | O=C(N[C@@H](Cc1cccnc1)C(=O)N1CCC[C@H]1C(=O)N1CCO[C@H](c2ccccc2)C1)c1cc2cc(C(F)(F)P(=O)(O)O)ccc2s1 [Compound 271, (difluoro(2-(((S)-1-oxo-1-((S)-2-((R)-2-phenylmorpholine-4-carbonyl)pyrrolidin-1-yl)-3-(pyridin-3-yl)propan-2-yl)carbamoyl)benzo[b]thiophen-5-yl)methyl)phosphonic acid] | 100 to 1000 nM
13 | CC(C)(C)[C@H](NC(=O)c1cc2cc(C(F)(F)P(=O)(O)O)ccc2s1)C(=O)N1Cc2ccccc2C[C@H]1C(=O)N1CCOC(c2cccc3ccccc23)C1 (stereo partly drawn) [Compound 227, ((2-(((2S)-3,3-dimethyl-1-((3S)-3-(2-(naphthalen-1-yl)morpholine-4-carbonyl)-3,4-dihydroisoquinolin-2(1H)-yl)-1-oxobutan-2-yl)carbamoyl)benzo[b]thiophen-5-yl)difluoromethyl)phosphonic acid] | 100 to 1000 nM
14 | CC(C)(C)[C@H](NC(=O)c1cc2cc(C(F)(F)P(=O)(O)O)ccc2s1)C(=O)N1C[C@@H](OCC(=O)O)C[C@H]1C(=O)N(CCC(=O)O)c1ccc(Br)cc1 [Compound 49, 3-((2S,4S)-N-(4-bromophenyl)-4-(carboxymethoxy)-1-((S)-2-(5-(difluoro(phosphono)methyl)benzo[b]thiophene-2-carboxamido)-3,3-dimethylbutanoyl)pyrrolidine-2-carboxamido)propanoic acid] | 100 to 1000 nM
15 | CC(C)(C)[C@H](NC(=O)c1cc2cc(C(F)(F)P(=O)(O)O)ccc2s1)C(=O)N1CCC[C@H]1C(=O)N1CCOC(c2cc(F)cc(F)c2)C1 (stereo partly drawn) [Compound 265, ((2-(((2S)-1-((2S)-2-(2-(3,5-difluorophenyl)morpholine-4-carbonyl)pyrrolidin-1-yl)-3,3-dimethyl-1-oxobutan-2-yl)carbamoyl)benzo[b]thiophen-5-yl)difluoromethyl)phosphonic acid] | 100 to 1000 nM
16 | CC(C)(C)[C@H](NC(=O)c1cc2cc(C(F)(F)P(=O)(O)O)ccc2s1)C(=O)N1Cc2ccccc2C[C@H]1C(=O)N1CCOC(c2nccs2)C1 (stereo partly drawn) [Compound 219, ((2-(((2S)-3,3-dimethyl-1-oxo-1-((3S)-3-(2-(thiazol-2-yl)morpholine-4-carbonyl)-3,4-dihydroisoquinolin-2(1H)-yl)butan-2-yl)carbamoyl)benzo[b]thiophen-5-yl)difluoromethyl)phosphonic acid] | < 100 nM
17 | CC(C)(C)[C@H](NC(=O)c1cc2cc(C(F)(F)P(=O)(O)O)ccc2s1)C(=O)N1Cc2ccccc2C[C@H]1C(=O)N1CCOC(c2ccc(F)cc2F)C1 (stereo partly drawn) [Compound 237, ((2-(((2S)-1-((3S)-3-(2-(2,4-difluorophenyl)morpholine-4-carbonyl)-3,4-dihydroisoquinolin-2(1H)-yl)-3,3-dimethyl-1-oxobutan-2-yl)carbamoyl)benzo[b]thiophen-5-yl)difluoromethyl)phosphonic acid] | 100 to 1000 nM
18 | Cc1ccc(C2CN(C(=O)[C@@H]3Cc4ccccc4CN3C(=O)[C@@H](NC(=O)c3cc4cc(C(F)(F)P(=O)(O)O)ccc4s3)C(C)(C)C)CCO2)c(C)c1 (stereo partly drawn) [Compound 229, ((2-(((2S)-1-((3S)-3-(2-(2,4-dimethylphenyl)morpholine-4-carbonyl)-3,4-dihydroisoquinolin-2(1H)-yl)-3,3-dimethyl-1-oxobutan-2-yl)carbamoyl)benzo[b]thiophen-5-yl)difluoromethyl)phosphonic acid] | 1000 to 10000 nM
